≈ marks a conversion by molar mass, not a printed value. Read-outs that look alike come from different tables or passages of the source.
What was measured:
Type in all cases: cell-based
[1] = tested on: IL-6; test: IL-6 level of virus-infected Vero cells (ELISA)
Protocol: (§1) To enable measurement of IL-6, IL-10 and TNF-α levels, the culture medium of the treated cells was collected in sterile micro-tubes and centrifuged at 3,500 rpm for 20 minutes. The supernatants were carefully collected and diluted with aquadest at a 1:5 volume ratio and vortexed until homogenous. The samples were deposited onto a well-plate, added to ELISA reagents (Bioassay Technology Laboratory, Shanghai, China), and incubated at 37°C for 60 minutes. Reagent substrate solution was then added to the well and incubated for ten minutes at 37°C. The samples were measured for antigen concentration using the optical density (OD) plotted into the standard curves of IL-6, IL-10, and TNF-α.

[2] = tested on: TNF-α; test: TNF-α level of virus-infected Vero cells (ELISA)
Protocol: as §1

[3] = tested on: SARS-CoV-2 virus; test: microbe, parasite or virus in culture; conditions: for IC50: Severe acute respiratory syndrome coronavirus 2, Vero
[4] = tested on: IL-10; test: IL-10 level of virus-infected Vero cells (ELISA)
Protocol: as §1

[5] = Cytotoxicity (MTT) assay of single and dual combinatory drugs; conditions: human
Protocol: Each tablet containing drugs was triturated and mixed until homogenous. Approximately 50 mg equivalent mass of drugs were weighed and added to dimethyl sulfoxide in order to solubilize the drugs. The suspension was sonicated in a water bath for 15 minutes before being added to Rosewell Park Memorial Institute (RPMI) media, sonicated again and vortexed to mix it until homogenous. The suspension was then filtered through a polycarbonate membrane with a pore size of 0.45 μm and then a pore size of 0.22 μm under aseptic conditions. The filtrate was mixed with 10% foetal bovine serum and penicillin streptomycin before being vortexed to produce a homogenous mixture to be used as a stock solution. The samples were prepared by diluting the stock solution of each drug with RPMI complete media at an appropriate level of dilution to produce a determined concentration. The dual combinatory drugs mixtures were prepared by mixing appropriate amounts of two drug stock solutions in order to produce a final concentration at the required level. The combinatory drugs were evaluated at both constant and non-constant ratios to evaluate their effects on the cytotoxicity, including; antagonistic, synergistic, or additive. A constant ratio of the mixture was achieved by adding drug solutions at the same ratio, thereby increasing each drug concentration, to produce dose escalation. In contrast, at a non-constant ratio, a fixed determined concentration of drug was added to increased doses of other drug solution in order to produce different levels of drug concentration.
The cytotoxic concentration (CC50) of drugs was performed by means of MTT assay at the Stem Cell Research and Development Center, Universitas Airlangga using human umbilical cord mesenchymal stem cells which had been obtained from human placenta tissue as approved by the Ethical Committee of Universitas Airlangga Hospital (Certificate number 101/KEH/2019 dated January 10, 2019). The cells were prepared as the primary cell culture and used for the cytotoxicity assay because of their sensitivity to chemicals. Cells were seeded into 96-well microplates at a concentration of 1x10^3 cells/well in 100 μL Alpha Minimum Essentials Medium (α-MEM, Gibco, USA) supplemented with 10% foetal bovine serum, 1% penicillin-streptomycin and 1% amphotericin-B. The plates were then incubated in a CO2 incubator at 37°C with 5% CO2 for 24 hours, at which point, the supernatant was replaced with α-MEM containing drugs at each concentration and incubated for a further 48 hours. Approximately 25μL of 3-(4,5-Dimethylthiazol-2-yl)-2,5-diphenyl tetrazolium-bromide (MTT) reagent at a concentration of 5mg/mL was subsequently added to each well and incubated for four hours at 37°C with 5% CO2. Purple formazan crystals were formed and observed under an inverted microscope. Dimethyl sulfoxide was added to each well with the complete solubilisation of formazan crystals subsequently being observed. The greater the number of formazan crystals formed, the lower the toxicity of the samples which were read for optical density of formazan using a multi reader at a measurement wavelength of 595 nm (Promega Glomax, USA). The CC50 value was analyzed by CompuSyn software (the ComboSyn Inc., accessed from www.combosyn.com).
In this study, the cytotoxicity assay was evaluated for single and dual combinatory drugs during a period of 48 hours of drug incubation. This assay was intended to evaluate the toxicity of dual combinatory drugs on normal cells. The combination ratios were calculated taking into consideration the usual therapeutic doses and plasma peak concentrations of the drugs. To determine this cytotoxicity, the drugs were mixed at both constant and non-constant ratios.

[6] = FAVIPIRAVIR-AZITHROMYCIN series, read-out: Cell Viability (%)
[7] = HYDROXYCHLOROQUINE-AZITHROMYCIN series, read-out: Cell Viability (%)
[8] = LOPIRITO-AZITHROMYCIN series, read-out: Viability Cell (%)
[9] = HYDROXYCHLOROQUINE-DOXYCYCLINE series, read-out: Cell viability (%)
[10] = LOPIRITO-DOXYCYCLINE series, read-out: Cell Viability (%)

CC[C@H]1OC(=O)[C@H](C)[C@@H](O[C@H]2C[C@@](C)(OC)[C@@H](O)[C@H](C)O2)[C@H](C)[C@@H](O[C@@H]2O[C@H](C)C[C@H](N(C)C)[C@H]2O)[C@](C)(O)C[C@@H](C)CN(C)[C@H](C)[C@@H](O)[C@]1(C)O [AZI, Azithromycin]
IL-6 ([1]; 15 μg/mL, 24-h): 14.55 ± 2.22 ng/L
IL-6 ([1]; 15 μg/mL, 72-h): 565.92 ± 0.00 ng/L
IL-6 ([1]; 62.5 μg/mL, 24-h): 15.92 ± 0.57 ng/L
IL-6 ([1]; 62.5 μg/mL, 48-h): 33.47 ± 3.98 ng/L
IL-6 ([1]; 62.5 μg/mL, 72-h): 529.11 ± 0.95 ng/L
IL-6 (in words) ([1]; Table 5): reduced
TNF-α ([2]; 15 μg/mL, 24-h): 6.994 ± 1.32 pg/mL
TNF-α ([2]; 15 μg/mL, 48-h): 478 ± 1.50 pg/mL
TNF-α ([2]; 15 μg/mL, 72-h): 777.34 ± 1.67 pg/mL
TNF-α ([2]; 62.5 μg/mL, 24-h): 86.00 ± 2.84 pg/mL
TNF-α ([2]; 62.5 μg/mL, 48-h): 381.30 ± 1.28 pg/mL
TNF-α ([2]; 62.5 μg/mL, 72-h): 641.33 ± 0.00 pg/mL
TNF-α ([2]; 24, 48, and 72 hours, cell without concentration): No effects
TNF-α levels (in words) ([2]; Table 5): no effects
Virus Titer ([3]; 15 μg/mL, 24-h): 38.18 viral protein fg/mL
Virus Titer ([3]; 62.5 μg/mL, 48-h): 38.78 viral protein fg/mL
IC50 ([3]; 24h, MoI 0.04): 51.9 µg/mL (≈ 69.3 µM)
IC50 ([3]; 48h, MoI 0.04): 19.6 µg/mL (≈ 26.2 µM)
IC50 ([3]; 72h, MoI 0.04): < 10 µg/mL
IL-10 ([4]; 15 μg/mL, 24-h): 32.78 ± 1.18 pg/mL
IL-10 ([4]; 15 μg/mL, 48-h): 152.34 ± 1.72 pg/mL
IL-10 ([4]; 15 μg/mL, 72-h): 609.92 ± 1.48 pg/mL
IL-10 ([4]; 15 μg/mL, 24h): ↗↗ (15 μg/mL; 24h)
IL-10 ([4]; 62.5 μg/mL, 24-h): 53.50 ± 1.85 pg/mL
IL-10 ([4]; 62.5 μg/mL, 48-h): 91.92 ± 1.45 pg/mL
IL-10 levels (in words) ([4]; Table 5): increased
viability at 48 h, 0.2 μg/mL [5, 6]: 115%
viability at 48 h, 2 μg/mL [5, 6]: 107%
viability at 48 h, 10 μg/mL [5, 6]: 110%
viability at 48 h, 100 μg/mL [5, 6]: 139%
viability at 48 h, 400 μg/mL [5, 6]: 90.9%
viability at 48 h, 2 μg/mL [5, 7]: 94.2%
viability at 48 h, 10 μg/mL [5, 7]: 104%
viability at 48 h, 100 μg/mL [5, 7]: 110%
viability at 48 h, 400 μg/mL [5, 7]: 68.9%
viability at 48 h, 0.2 μg/mL [5, 8]: 84.7%
viability at 48 h, 2 μg/mL [5, 8]: 81.2%
viability at 48 h, 10 μg/mL [5, 8]: 84.6%
viability at 48 h, 100 μg/mL [5, 8]: 89.5%
viability at 48 h, 400 μg/mL [5, 8]: 81.2%

C[C@H]1c2cccc(O)c2C(=O)C2=C(O)[C@]3(O)C(=O)C(C(N)=O)=C(O)[C@@H](N(C)C)[C@@H]3[C@@H](O)[C@@H]21 [DOXY, Doxycycline]
IL-6 ([1]; 1 μg/mL, 24-h): 21.06 ± 1.43 ng/L
IL-6 ([1]; 1 μg/mL, 48-h): 36.93 ± 0.93 ng/L
IL-6 ([1]; 1 μg/mL, 72-h): 40.56 ± 0.56 ng/L
IL-6 ([1]; 1 μg/mL, 24h): ↘↘ (1 μg/mL; 24h)
IL-6 ([1]; 15 μg/mL, 24-h): 13.34 ± 0.86 ng/L
IL-6 ([1]; 15 μg/mL, 48-h): 37.98 ± 0.94 ng/L
IL-6 ([1]; 15 μg/mL, 72-h): 43.01 ± 0.05 ng/L
TNF-α ([2]; 1 μg/mL, 24-h): 1.98 ± 0.00 pg/mL
TNF-α ([2]; 1 μg/mL, 48-h): 408.19 ± 0.77 pg/mL
TNF-α ([2]; 1 μg/mL, 72-h): 511.16 ± 3.09 pg/mL
TNF-α ([2]; 1 μg/mL, 24h): ↘↘ (1 μg/mL; 24h)
TNF-α ([2]; 15 μg/mL, 24-h): 1.98 ± 0.84 pg/mL
TNF-α ([2]; 15 μg/mL, 48-h): 408.19 ± 0.84 pg/mL
TNF-α ([2]; 15 μg/mL, 72-h): 529.12 ± 0.46 pg/mL
Virus Titer ([3]; 1 μg/mL, 24-h): 38.42 viral protein fg/mL
Virus Titer ([3]; 15 μg/mL, 24-h): 36.90 viral protein fg/mL
Virus Titer ([3]; 15 μg/mL, 48-h): 37.85 viral protein fg/mL
Virus Titer ([3]; 15 μg/mL, 72-h): 39.15 viral protein fg/mL
Drug concentration that produced an undetected virus copy number ([3]; MoI 0.04, at 24, 48, and/or 72 hours' incubation): 37.5 µg/mL
IC50 ([3]; 24h, MoI 0.04): 18 µg/mL (≈ 40.5 µM)
IC50 ([3]; 48h, MoI 0.04): 4.7 µg/mL (≈ 10.6 µM)
IC50 ([3]; 72h, MoI 0.04): 0.4 µg/mL (≈ 0.9 µM)
Results (virus detection) ([3]; at the drug concentration of the same line of Table 4, MoI 0.04): 24, 48, 72h virus undetected
IL-10 ([4]; 1 μg/mL, 24-h): 35.31 ± 0.22 pg/mL
IL-10 ([4]; 1 μg/mL, 48, 72h): ↗↗ (1 μg/mL; 48, 72h)
IL-10 ([4]; 1 μg/mL, 48-h): 219.74 ± 0.08 pg/mL
IL-10 ([4]; 1 μg/mL, 72-h): 415.82 ± 0.23 pg/mL
IL-10 ([4]; 15 μg/mL, 24-h): 35.31 ± 1.53 pg/mL
IL-10 ([4]; 15 μg/mL, 48-h): 219.74 ± 1.41 pg/mL
IL-10 ([4]; 15 μg/mL, 72-h): 702.97 ± 0.07 pg/mL
viability at 48 h, 0.2 μg/mL [5, 9]: 96.9%
viability at 48 h, 2 μg/mL [5, 9]: 112%
viability at 48 h, 10 μg/mL [5, 9]: 117%
viability at 48 h, 100 μg/mL [5, 9]: 120%
viability at 48 h, 400 μg/mL [5, 9]: 96.5%
CC50 at 48 h ([5]; LOPIRITO-DOXY experiment (Fig 6), 48 hours, CompuSyn, n = 3, read-out: CC50): 16.5 mg/mL
viability at 48 h, 0.2 μg/mL [5, 10]: 103%
viability at 48 h, 2 μg/mL [5, 10]: 104%
viability at 48 h, 10 μg/mL [5, 10]: 105%
viability at 48 h, 100 μg/mL [5, 10]: 92.8%
viability at 48 h, 400 μg/mL [5, 10]: 91.7%

Source: paper PMC8213153 (PLoS ONE, 2021)
